Reference: publication PMC9508125, “The evolutionary advantage of an aromatic clamp in plant family 3 glycoside exo-hydrolases” (Nature Communications, 2022)
Residue numbers refer to the chain shown, from its start.

Experiments:
Assay in all cases: Relative rates of hydrolysis of poly-, oligosaccharides and aryl-glycosides
Assay type in all cases: biochemical
[1] = target: T1, HvExoI W434Y mutant (Hordeum vulgare, UniProt Q9XEI3, W459Y); details: substance is the substrate, nd = activity not detected
T1 sequence (Q9XEI3 26-630 W459Y): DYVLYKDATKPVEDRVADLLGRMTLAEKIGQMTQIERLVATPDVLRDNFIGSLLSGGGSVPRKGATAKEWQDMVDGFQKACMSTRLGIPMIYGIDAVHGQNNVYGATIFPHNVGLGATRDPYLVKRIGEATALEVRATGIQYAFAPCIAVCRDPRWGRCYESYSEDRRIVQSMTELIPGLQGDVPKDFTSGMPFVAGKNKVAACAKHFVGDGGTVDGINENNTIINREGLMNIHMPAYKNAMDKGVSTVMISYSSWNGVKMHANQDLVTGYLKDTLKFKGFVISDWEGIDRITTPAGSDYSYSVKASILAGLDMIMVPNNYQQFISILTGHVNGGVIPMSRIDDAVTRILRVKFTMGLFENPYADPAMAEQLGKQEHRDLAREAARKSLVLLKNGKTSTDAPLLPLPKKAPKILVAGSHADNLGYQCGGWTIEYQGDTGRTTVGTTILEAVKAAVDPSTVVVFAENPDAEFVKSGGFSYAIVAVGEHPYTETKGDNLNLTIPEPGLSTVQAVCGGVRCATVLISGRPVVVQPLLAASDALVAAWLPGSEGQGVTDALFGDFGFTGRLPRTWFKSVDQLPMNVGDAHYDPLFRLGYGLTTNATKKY
Description: (§1) Dependency of activities of WT and mutant HvExoI on pH (McIlvaine buffers in the pH range of 3.5–8.5 at 30 °C) and temperature (100 mM sodium acetate buffer, pH 5.25, temperature range 0–80 °C, 15 min incubations) were determined using 0.2% (w/v) 4NP-Glc[21],[59]. Relative rates of hydrolysis of β-linked poly-, oligosaccharides, and aryl-glucosides were determined using near-homogenous HvExoI at 50 pmoles. […] Kinetic parameters were calculated from the analyses of Michaelis-Menten plots with Grafit 7.0.3[62] and processed by a proportional weighted fit, using nonlinear regression. The relative rates of hydrolysis, kinetic, and inhibition data were rounded to one or two decimal points (Supplementary Tables 2–4).

[2] = target: T2, HvExoI W286F/W434A mutant (Hordeum vulgare, UniProt Q9XEI3, W311F/W459A); details: substance is the substrate, nd = activity not detected
T2 sequence (Q9XEI3 26-630 W311F/W459A): T1 sequence (Q9XEI3 26-630 W459Y) with W286F, Y434A
Description: as §1

[3] = target: T3, HvExoI W286F mutant (Hordeum vulgare, UniProt Q9XEI3, W311F); details: substance is the substrate, nd = activity not detected
T3 sequence (Q9XEI3 26-630 W311F): T1 sequence (Q9XEI3 26-630 W459Y) with W286F, Y434W
Description: as §1

[4] = target: WT HvExoI (Hordeum vulgare, UniProt Q9XEI3); details: substance is the substrate, HvExoI at 50 pmoles, nd = activity not detected
Description: as §1

[5] = target: T4, HvExoI W286F/W434F mutant (Hordeum vulgare, UniProt Q9XEI3, W311F/W459F); details: substance is the substrate, nd = activity not detected
T4 sequence (Q9XEI3 26-630 W311F/W459F): T1 sequence (Q9XEI3 26-630 W459Y) with W286F, Y434F
Description: as §1

Chain of WT HvExoI (Q9XEI3 entry or part of it): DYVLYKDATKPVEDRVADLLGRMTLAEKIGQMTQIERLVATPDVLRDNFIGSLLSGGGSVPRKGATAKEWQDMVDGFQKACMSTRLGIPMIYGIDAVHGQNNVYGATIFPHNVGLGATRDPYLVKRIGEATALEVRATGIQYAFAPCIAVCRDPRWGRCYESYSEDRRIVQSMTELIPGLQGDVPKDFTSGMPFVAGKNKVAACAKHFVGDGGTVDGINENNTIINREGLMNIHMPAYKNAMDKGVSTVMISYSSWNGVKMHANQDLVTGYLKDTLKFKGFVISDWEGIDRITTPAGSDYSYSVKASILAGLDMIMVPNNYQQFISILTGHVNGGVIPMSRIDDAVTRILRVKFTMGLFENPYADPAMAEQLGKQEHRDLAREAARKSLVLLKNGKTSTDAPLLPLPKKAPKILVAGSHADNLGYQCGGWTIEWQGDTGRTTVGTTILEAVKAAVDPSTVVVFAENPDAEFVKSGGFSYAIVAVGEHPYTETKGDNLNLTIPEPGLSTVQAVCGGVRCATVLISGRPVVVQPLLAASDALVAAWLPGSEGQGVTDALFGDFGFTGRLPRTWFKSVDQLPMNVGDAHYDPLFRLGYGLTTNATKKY

Compound	Activity (relative rate of hydrolysis) [1] [μmole/min per mg protein]	Activity (relative rate of hydrolysis) [2] [μmole/min per mg protein]	Activity (relative rate of hydrolysis) [3] [μmole/min per mg protein]	Activity (relative rate of hydrolysis) [4] [μmole/min per mg protein]	Activity (relative rate of hydrolysis) [5] [μmole/min per mg protein]
O=[N+]([O-])c1ccc(O[C@@H]2O[C@H](CO)[C@@H](O)[C@H](O)[C@H]2O)cc1 [4NP-Glc, 4-nitrophenyl β-D-glucopyranoside]	1.2 ± 0.1	1.8 ± 0.03	0.9 ± 0.01	12.4 ± 0.8	0.5 ± 0.02
OC[C@H]1O[C@@H](O[C@H]2[C@H](O)[C@@H](O)[C@H](O[C@H]3[C@H](O)[C@@H](O)[C@H](O[C@H]4[C@H](O)[C@@H](O)[C@H](O[C@H]5[C@H](O)[C@@H](O)[C@H](O[C@H]6[C@H](O)[C@@H](O)C(O)O[C@@H]6CO)O[C@@H]5CO)O[C@@H]4CO)O[C@@H]3CO)O[C@@H]2CO)[C@H](O)[C@@H](O)[C@@H]1O (stereo partly drawn) [Cellohexaose]	0.1 ± 0.01	0.01 ± 0.0002	0.1 ± 0.01	9.1 ± 0.2	0.01 ± 0.001
OC[C@H]1O[C@@H](O[C@H]2[C@H](O)[C@@H](O)[C@H](O[C@H]3[C@H](O)[C@@H](O)[C@H](O[C@H]4[C@H](O)[C@@H](O)[C@H](O[C@H]5[C@H](O)[C@@H](O)C(O)O[C@@H]5CO)O[C@@H]4CO)O[C@@H]3CO)O[C@@H]2CO)[C@H](O)[C@@H](O)[C@@H]1O (stereo partly drawn) [Cellopentaose]	0.1 ± 0.002	0.01 ± 0.0003	0.1 ± 0.01	8.4 ± 0.4	0.02 ± 0.001
OC[C@H]1O[C@@H](O[C@H]2[C@H](O)[C@@H](O)[C@H](O[C@H]3[C@H](O)[C@@H](O)[C@H](O[C@H]4[C@H](O)[C@@H](O)C(O)O[C@@H]4CO)O[C@@H]3CO)O[C@@H]2CO)[C@H](O)[C@@H](O)[C@@H]1O (stereo partly drawn) [Cellotetraose]	0.1 ± 0.01	0.1 ± 0.01	0.1 ± 0.01	8.5 ± 0.7	0.02 ± 0.001
OC[C@H]1O[C@@H](O[C@H]2[C@H](O)[C@@H](O)[C@H](O[C@H]3[C@H](O)[C@@H](O)C(O)O[C@@H]3CO)O[C@@H]2CO)[C@H](O)[C@@H](O)[C@@H]1O (stereo partly drawn) [Cellotriose]	0.1 ± 0.02	0.01 ± 0.001	0.1 ± 0.01	8.8 ± 0.4	0.02 ± 0.002
OC[C@H]1O[C@@H](O[C@H]2[C@H](O)[C@@H](CO)OC(O)[C@@H]2O)[C@H](O)[C@@H](O)[C@@H]1O (stereo partly drawn) [Laminaribiose]	1.1 ± 0.1	0.1 ± 0.001	0.6 ± 0.04	–	0.5 ± 0.1
OC[C@H]1O[C@@H](O[C@@H]2[C@@H](O)[C@H](O[C@@H]3[C@@H](O)[C@H](O[C@@H]4[C@@H](O)[C@H](O[C@@H]5[C@@H](O)[C@H](O[C@@H]6[C@@H](O)[C@H](O[C@@H]7[C@@H](O)[C@H](O)O[C@H](CO)[C@H]7O)O[C@H](CO)[C@H]6O)O[C@H](CO)[C@H]5O)O[C@H](CO)[C@H]4O)O[C@H](CO)[C@H]3O)O[C@H](CO)[C@H]2O)[C@H](O)[C@@H](O)[C@@H]1O [Laminariheptaose]	1.3 ± 0.1	0.1 ± 0.004	1.2 ± 0.1	11.0 ± 0.8	0.5 ± 0.04
OC[C@H]1O[C@@H](O[C@@H]2[C@@H](O)[C@H](O[C@@H]3[C@@H](O)[C@H](O[C@@H]4[C@@H](O)[C@H](O[C@@H]5[C@@H](O)[C@H](O[C@H]6[C@H](O)[C@@H](CO)OC(O)[C@@H]6O)O[C@H](CO)[C@H]5O)O[C@H](CO)[C@H]4O)O[C@H](CO)[C@H]3O)O[C@H](CO)[C@H]2O)[C@H](O)[C@@H](O)[C@@H]1O (stereo partly drawn) [Laminarihexaose]	1.4 ± 0.1	0.1 ± 0.004	1.1 ± 0.03	12.2 ± 0.1	0.5 ± 0.1
